The values that follow come from US12514883B2, “Compositions and methods for modulating lipid and steroid metabolism” (The Regents of the University of California, priority 2019, dated 2026).

Data set [1] relates to T. sanguinis. Briefly: [3H]5-HT uptake assay in T. sanguinis. Type of data set: cell-based, Turicibacter sanguinis. Particulars: 30 min pre-treatment.
Data set [2] is described as follows: Fecal 5-HT levels after 5-HT in drinking water (ELISA). Type of data set: in vivo, mice. The procedure: (§1) Water was supplemented with 5-HT (Sigma Aldrich) at 1.5 mg/ml provided ad libitum to mice for 2 weeks. The amount of water consumed and mouse weight were measured on days 3, 7, 10 and 14 of treatment. Mice were sacrificed one day after treatment for 5-HT assays and fecal 16S rDNA profiling was conducted as described below.
Blood samples were collected by cardiac puncture and spun through SST vacutainers (Becton Dickinson) for serum separation. […] Serotonin levels were detected by ELISA according to the manufacturer's instructions (Eagle Biosciences). Readings from tissue samples were normalized to total protein content as detected by BCA assay or the 660 nm Protein Assay (Thermo Pierce).
SPF mice were treated with ampicillin, gentamicin, neomycin and vancomycin (AGNV) in their drinking water at 0.5 g/L for 4 days. […] 5-HT drinking water concentration was determined by calculating the same molar concentration as Flx in drinking water. […] Three days after the final gavage, mice were euthanized by CO2 and the small and large intestines were collected for fluorescence in situ hybridization (FISH) as described below and lumenal contents from the small and large intestines were harvested for 16S rDNA sequencing. […] Tissues were collected and analysed 3 d after the final gavage. […]

Data set [3] concerns gut microbiota (Clostridia). Nature of the data set: Fecal 16S rDNA microbiota profiling after oral 5-HT supplementation. Type of data set: in vivo, mice. The procedure:
as §1
(§2) Bacterial genomic DNA was extracted from mouse fecal samples using the MoBio PowerSoil Kit. The library was generated according to methods adapted from Capraso J. G., et al., PNAS 108 Suppl 1, 4516-4522 (2011). The V4 regions of the 16S rDNA gene were PCR amplified using individually barcoded universal primers and 30 ng of the extracted genomic DNA. The PCR reaction was set up in triplicate, and the PCR product was purified using the Qiaquick PCR purification kit (Qiagen). In total, 250 ng of purified PCR product from each sample was pooled and sequenced by Laragen, Inc. using the Illumina MiSeq platform and 2×250 bp reagent kit for paired-end sequencing. Operational taxonomic units (OTUs) were chosen by open reference OTU picking based on 97% sequence similarity to the Greengenes 13_5 database. Taxonomy assignment and rarefaction were performed using QIIME1.8.0. Metagenomes were inferred from closed reference OTU tables using PICRUSt.

Data set [4] deals with Turicibacter sanguinis MOL361. Nature of the data set: T. sanguinis growth curve and viability. Type of data set: cell-based. Here is the method: Scale bars: 10 μm. […] Scale bar denotes 100 um.
Cell density of T. sanguinis at 6, 12, 18, 30, 36, 45 and 48 hours of growth in the presence of 200 uM 5-HT, Flx or both 5-HT and Flx. Treatments were added at the start of culture (e.g. t=0 h).
(§3) Turicibacter sanguinis MOL361 (DSM-14220, DSMZ) was grown in Schaedler's Broth (BD Biosciences) in an anaerobic chamber of 10% carbon dioxide, 5% hydrogen, and balanced nitrogen. Bacteroides thetaiotaomicron (ATCC 29148) was grown in Brain Heart Infusion media (BD Biosciences) supplemented with 5 ug/ml hemin (Frontier Scientific) and 0.5 ug/ml vitamin K1 (Sigma Aldrich) under the same anaerobic conditions. Mouse- and human-derived spore-forming bacterial consortia were isolated by chloroform treatment and propagated in mice.

Data set [5] deals with T. sanguinis. Briefly: APP+ uptake assay in T. sanguinis. It is filed as cell-based, Turicibacter sanguinis. The settings on record: 200 uM pre-treatment for 30 min. The procedure:
(§4) T. sanguinis and B. theta were cultured anaerobically as described above and subcultured for 15-17 h to reach the stationaryphase. Bacterial APP+ transport activity was measured according to the manufacturer's instructions using the Neurotransmitter Transporter Uptake Assay Kit (Molecular Devices). […] Then cells were treated with APP+ for 4 hours at 37° C. Intracellular fluorescence signal was measured at 520 nm using a multimodal plate reader (Biotek Synergy H1). Bacterial suspensions were mounted on slides and imaged using an epifluorescence microscope (EVOS). Images of B. theta were brightened by 90% to resolve fluorescence signal.

For data set [6], the system named is CUW_0748. Nature of the data set: APP+ uptake in B. thetaiotaomicron expressing CUW_0748. Type of data set: cell-based. Here is the method:
as §4

The test system of data set [7] is CUW_0748. Nature of the data set: [3H]5-HT uptake in B. thetaiotaomicron expressing CUW_0748. It is filed as cell-based. Here is the method:
The vector was transformed into E. coli with selection using 100 ug/ml ampicillin and conjugated into B. theta using the E. coli helper plasmid RK231 with 50 ug/ml kanamycin selection. E. coli was killed using 200 ug/ml gentamicin and transconjugant strains were selected using 5 ug/ml erythromycin. Successful conjugation and gene expression were confirmed by PCR and qPCR for CUW_0748 in DNA and RNA extracted from B. theta clones. T. sanguinis or B. theta were cultured anaerobically as described above and subcultured for 15-17 h to reach the stationary phase. […] For T. sanguinis, all uptake reactions were performed at room temperature. For B. theta, uptake reactions were performed at either room temperature or 37° C. Uptake reactions were terminated by washing in ice cold Kreb-Ringer's buffer. Washed T. sanguinis was trapped through 0.45 um PVDF filters on MultiScreenHTS plates connected to a vacuum manifold (EMD Millipore). For B. theta, washed cells were either trapped through 0.45-μm PVDF filters or lysed by incubating in TE buffer plus triton and lysozyme. Extracted filters or lysed cells were incubated in 4 ml Filter Count scintillation fluid (Perkin Elmer) for 1 hour at room temp, and radioactivity was measured using a liquid scintillation counter (Beckman LS6500).

Data set [8] concerns T. sanguinis. Briefly: Bacterial transcriptomic analysis of T. sanguinis. It is filed as cell-based, Turicibacter sanguinis. The procedure:
T. sanguinis was cultured anaerobically as described above and subcultured to mid-log-phase. […] Bacteria were washed with PBS and lysed in TE buffer containing 1.2% Triton X-100 and 15 mg/ml lysozyme. RNA was extracted using the RNAeasy Mini kit with on-column genomic DNA-digest (Qiagen). cDNA synthesis was performed using the qScript cDNA synthesis kit (Quantabio). RNA quality of RIN>8.0 was confirmed using the 4200 Tapestation system (Agilent). rRNA were removed with the Ribo-Zero Bacterial kit (Illumina), RNA was prepared using the TruSeq Stranded RNA kit (Illumina) and 2×75 bp paired end reads were sequenced using the Illumina HiSeq platform by the UCLA Neuroscience Genomics Core. The bacterial RNAseq analysis package Rockhopper was used for quality filtering, mapping against the T. sanguinis PC909 genome and differential expression analysis. […] Heatmaps containing differentially expressed genes with adjusted p<0.05 and coefficient of variation (standard deviation/mean)<3 were generated using the pheatmap package for R. GO term enrichment analysis of differentially expressed genes with adjusted p<0.05 was conducted using DAVID. Functional protein networks were generated with differentially expressed genes with adjusted p<0.05 using STRING. Bacterial FM 4-64 staining and imaging. […] Cells were washed with PBS, fixed in 4% paraformaldehyde, and stained with FM4-64 (5 μg ml−1) and 4′,6-diamidino-2-phenylindole (DAPI; 0.2 μg ml−1) according to the manufacturer's instructions. Cells were wet-mounted on glass slides and cover slips. Images were acquired at 63× using the Zeiss LSM 780 confocal microscope. Images were analysed using Fiji software51 by a researcher blinded to the experimental group. FM 4-64 puncta were counted manually based on circularity and fluorescence intensity. Counts were normalized to cell area, as determined by thresholding of DAPI staining.

Data set [9] has as its system T. sanguinis MOL361. Nature of the data set: Turicibacter colonization of antibiotic-treated mice (FISH, 16S rDNA). It is filed as in vivo.
Data set [10] deals with T. sanguinis MOL361. Briefly: 5-HT levels in culture supernatant of T. sanguinis grown in Schaedler broth. It is filed as cell-based, Turicibacter sanguinis. Particulars: 200 uM fluoxetine, 0-36 hours of growth. Here is the method:
as §3

In data set [11] the test system is T. sanguinis. Nature of the data set: [3H]NE uptake assay in T. sanguinis. It is filed as cell-based, Turicibacter sanguinis. Particulars: 30 min pre-treatment, 200 uM fluoxetine. Here is the method: T. sanguinis or B. theta were cultured anaerobically as described above and subcultured for 15-17 h to reach the stationary phase. […] Cells were then incubated with 1 μM tritiated 5-HT (plus 0-500 μM unlabelled 5-HT for dose-dependent assays), NE or Trp (PerkinElmer). For T. sanguinis, all uptake reactions were performed at room temperature. For B. theta, uptake reactions were performed at either room temperature or 37° C. Uptake reactions were terminated by washing in ice cold Kreb-Ringer's buffer. Washed T. sanguinis was trapped through 0.45 um PVDF filters on MultiScreenHTS plates connected to a vacuum manifold (EMD Millipore). For B. theta, washed cells were either trapped through 0.45-μm PVDF filters or lysed by incubating in TE buffer plus triton and lysozyme. Extracted filters or lysed cells were incubated in 4 ml Filter Count scintillation fluid (Perkin Elmer) for 1 hour at room temp, and radioactivity was measured using a liquid scintillation counter (Beckman LS6500).

A further data set relates to fecal microbiota. Briefly: Fluoxetine treatment of SPF mice, fecal 16S rDNA sequencing. It is filed as in vivo. The procedure: as §2
Fecal samples were harvested on day 0, 1, 4, 7 or 14 of treatment as indicated in figure legends and processed for 16S rDNA sequencing as described above.

Data set [12] in a line: Lipid clinical chemistry analysis of serum. It is filed as in vivo. The settings on record: antibiotic-treated mice gavaged with T. sanguinis pretreated with 200 μM 5-HT+Flx. The source says: Serum samples were collected from SPF, germfree, Turicibacter-monocolonized or Turicibacter-enriched mice and submitted to Charles River Clinical Pathology for analysis of the lipid species, including total cholesterol, free fatty acids, high-density lipoprotein, low-density lipoprotein and total triglycerides.

Where [13] appears, read: SPF mice gavaged with fluoxetine.

For `COc1cc2c(cc1OC)C1CC(=O)C(CC(C)C)CN1CC2` (centres unmarked) [tetrabenazine], the “effect on [3H]5-HT uptake by T. sanguinis” value in the data set on T. sanguinis [1] is listed as “not observed”.

In the case of `NCCc1c[nH]c2ccc(O)cc12` [5-HT, 5-hydroxytryptamine], in [2] (SPF mice, 1.5 mg/ml 5-HT in the drinking water for 2 weeks), the “increase of fecal 5-HT levels relative to vehicle-treated controls” value is 642 fold. The “elevation of fecal 5-HT levels over vehicle” value in data set [2] (antibiotic-treated mice, 5-HT 24 μg/ml in drinking water) is “approximately 6 fold”. Further, the “combined relative abundance of Clostridiales, Clostridiaceae, Ruminococcus and Ruminococcaceae (mean±S.E.M.)” value in data set [3] (5-HT-supplemented mice, fecal microbiota) was 86.2±5.8%. In addition, the “increase of combined relative abundance of Clostridiales, Clostridiaceae, Ruminococcus and Ruminococcaceae” value in data set [3] (SPF mice, 1.5 mg/ml 5-HT in drinking water 2 weeks, vs SPF mice) came out at 8.4 fold. Also, the “effect on species of Clostridia in fecal microbiota” value in data set [3] (oral 5-HT supplementation, SPF mice) was “substantially enriched”. Moreover, in data set [4] (4 h exposure, 200 μM), the “T. sanguinis survival/viability after short-term (acute) exposure” value was “not affected”. Further, the “effect on APP+ uptake (import) by T. sanguinis” value (“effect on APP+ uptake (import)” below) with T. sanguinis [5] is on record as “partially decreased”. Also, the “effect on APP+ uptake conferred by CUW_0748” value in the data set with CUW_0748 [6] was “inhibited”. Besides, in the data set with CUW_0748 [7], the “effect on 1 μM [3H]5-HT uptake conferred by CUW_0748” value was “inhibited”. In addition, the “effect on T. sanguinis gene expression pathways vs vehicle” value in the data set with T. sanguinis [8] (200 uM 5-HT, 4 hr) is “downregulated the expression of genes that clustered into pathways for cell differentiation, morphogenesis and sporulation”. In addition, the “number of bacterial genes with significantly altered expression” value in the data set with T. sanguinis [8] (4 hr exposure, 200 uM, vs vehicle) is 71 genes. In addition, in the data set with T. sanguinis [8] (T. sanguinis treated with 5-HT), the “differentially expressed genes (q<0.05) downregulated relative to vehicle” value came out at 54 genes. In addition, the “T. sanguinis levels/colonization in the small intestine” value with T. sanguinis MOL361 [9] (antibiotic-treated SPF mice, bacterial pre-treatment plus same treatment in drinking water) is reported as “detectable T. sanguinis colonization”. Also, the “T. sanguinis competitive colonization, bacterial pre-treatment only” value with T. sanguinis MOL361 [9] (antibiotic-treated mice, no supplementation in drinking water) is “promoted its competitive colonization”.

Turning to `CNCCC(Oc1ccc(C(F)(F)F)cc1)c1ccccc1` (centres unmarked) [fluoxetine], the “effect on decrease of 5-HT levels in the media over time” value with T. sanguinis MOL361 [10] is reported as “prevented”. In addition, the “effect on T. sanguinis growth over long-term culture” value in [4] (200 uM, Schaedler broth, up to 48 hours) is “cytostatic effects”. For the same compound, the “effect on APP+ uptake (import)” value with T. sanguinis [5] is on record as “partially decreased”. The “effect on bacterial uptake of norepinephrine ([3H]NE)” value with T. sanguinis [11] is listed as “no effect”. In addition, the “change in T. sanguinis gene expression in the absence of 5-HT” value in the data set with T. sanguinis [8] (fluoxetine alone) is reported as “little change”. In addition, the “effect on T. sanguinis gene expression compared with 5-HT-treated controls” value in the data set on T. sanguinis [8] (fluoxetine with 5-HT, 4 hr) is “upregulated the expression of genes encoding proteins relevant to efflux transporters, ABC transporters and sporulation”. The “Turicibacter in fecal microbiota” value with fecal microbiota (SPF mice gavaged with 10 mg/kg fluoxetine) is “decreased”. In the data set with fecal microbiota (setting [13]), the “Clostridiaceae in fecal microbiota” value was “decreased” and the “bacterial alpha diversity of fecal microbiota” value is reported as “no significant differences”. The “serum triglyceride levels compared with mice colonized with vehicle-treated T. sanguinis” value in data set [12] was “increased”.

Regarding `NC[C@H](O)c1ccc(O)c(O)c1` [norepinephrine], the “effect on APP+ uptake (import)” value in the data set on T. sanguinis [5] was “modest, but not statistically significant, effect”.
